Experimental data as given in the NIST ThermoML archive (doi:10.1016/j.jct.2010.04.027).
Numbers after ± are expanded uncertainties.

Experiment: molar enthalpy of vaporization or sublimation
Conditions: 298.15 K; Crystal; Static calorimetry

Structure (SMILES) | molar enthalpy
c1ccc2c(c1)Cc1ccccc1O2 [10H-9-oxaanthracene] | 22 ± 0.526 kcal/mol
O=C1c2ccccc2Cc2ccccc21 [9(10H)-anthracenone] | 25.5 ± 0.86 kcal/mol
